Experimental data from ChEMBL document CHEMBL5537169, “Structure-Activity Relationships and Discovery of (S)-6-Isopropyl-2-methoxy-3-(3-methoxypropoxy)-10-oxo-5,10-dihydro-6H-pyrido[1,2-h][1,7]naphthyridine-9-carboxylic Acid (AB-452), a Novel Orally Available HBV RNA Destabilizer” (J Med Chem, 2024).
pEC50: −log10 of the molar value. Blank lines part the entries; values can stand above or below the molecule they belong to.

Columns and labels:
[1] = Clearance in CD-1 mouse liver microsomes at 0.3 uM pre-incubated for 10 mins followed by NADPH addition incubated for 60 mins by LC-MS/MS analysis; type: ADME, Microsome; conditions: time 70 min, read-out: CLH
Hepatitis B virus = assay: Antiviral activity against HBV infected in human HepG2.2.15 cells assessed as inhibition of HBsAg level incubated for 6 days by microplate-based chemiluminescence immunoassay; type: functional, organism-based; conditions: HepG2 2.2.15, 144 h
HepG2 2.2.15 = assay: Cytotoxicity against human HepG2.2.15 cells by Cell-titer Glo luminescent assay; type: functional
[2] = Clearance in human liver microsomes at 0.3 uM pre-incubated for 10 mins followed by NADPH addition incubated for 60 mins by LC-MS/MS analysis; type: ADME, Microsome; conditions: time 70 min, read-out: CLH
[3] = Cmax in CD-1 mouse at 10 mg/kg,po measured at 0.083 to 24 hrs post administration by LC-MS/MS analysis; type: ADME, organism-based; conditions: in vivo, time 0.083-24 hrs
[4] = AUCinfinity in Sprague-Dawley rat at 2 mg/kg,iv measured at 0.083 to 24 hrs post administration by LC-MS/MS analysis; type: ADME, organism-based; conditions: in vivo, iv, 2 mg/kg, time 0.083-24 hrs
[5] = Drug accumulation in Sprague-Dawley rat liver assessed as fold change in drug uptake at 10 mg/kg,po measured at 0.083 to 24 hrs post administration by LC-MS/MS analysis; type: ADME, organism-based; conditions: in vivo, time 0.083-24 hrs
[6] = Half life in Sprague-Dawley rat at 2 mg/kg,iv measured at 0.083 to 24 hrs post administration by LC-MS/MS analysis; type: ADME, organism-based; conditions: in vivo, time 0.083-24 hrs
[7] = AUCinfinity in CD-1 mouse at 10 mg/kg,po measured at 0.083 to 24 hrs post administration by LC-MS/MS analysis; type: ADME, organism-based; conditions: in vivo, time 0.083-24 hrs
[8] = Half life in Sprague-Dawley rat at 10 mg/kg,po measured at 0.083 to 24 hrs post administration by LC-MS/MS analysis; type: ADME, organism-based; conditions: in vivo, time 0.083-24 hrs
[9] = Clearance in Sprague-Dawley rat at 2 mg/kg,iv measured at 0.083 to 24 hrs post administration by LC-MS/MS analysis; type: ADME, organism-based; conditions: in vivo, time 0.083-24 hrs
[10] = Oral bioavailability in Sprague-Dawley rat at 10 mg/kg measured at 0.083 to 24 hrs by LC-MS/MS analysis; type: ADME, organism-based; conditions: in vivo, po, 10 mg/kg, time 0.083-24 hrs
[11] = AUCinfinity in CD-1 mouse at 2 mg/kg,iv measured at 0.083 to 24 hrs post administration by LC-MS/MS analysis; type: ADME, organism-based; conditions: in vivo, time 0.083-24 hrs
[12] = Drug accumulation in CD-1 mouse liver assessed as fold change in drug uptake at 10 mg/kg,po measured at 0.083 to 24 hrs post administration by LC-MS/MS analysis; type: ADME, organism-based; conditions: in vivo, time 0.083-24 hrs
[13] = Apparent volume of distribution at steady state in CD-1 mouse at 2 mg/kg,iv measured at 0.083 to 24 hrs post administration by LC-MS/MS analysis; type: ADME, organism-based; conditions: in vivo, time 0.083-24 hrs, read-out: Vdss(app)
[14] = Drug accumulation in Sprague-Dawley rat plasma assessed as fold change in drug uptake at 10 mg/kg,po measured at 0.083 to 24 hrs post administration by LC-MS/MS analysis; type: ADME, organism-based; conditions: in vivo, time 0.083-24 hrs
[15] = Apparent volume of distribution at steady state in Sprague-Dawley rat at 2 mg/kg,iv measured at 0.083 to 24 hrs post administration by LC-MS/MS analysis; type: ADME, organism-based; conditions: in vivo, time 0.083-24 hrs, read-out: Vdss(app)
[16] = Half life in CD-1 mouse at 2 mg/kg,iv measured at 0.083 to 24 hrs post administration by LC-MS/MS analysis; type: ADME, organism-based; conditions: in vivo, time 0.083-24 hrs
[17] = Oral bioavailability in CD-1 mouse at 10 mg/kg measured at 0.083 to 24 hrs by LC-MS/MS analysis; type: ADME, organism-based; conditions: in vivo, time 0.083-24 hrs
[18] = Half life in CD-1 mouse at 10 mg/kg,po measured at 0.083 to 24 hrs post administration by LC-MS/MS analysis; type: ADME, organism-based; conditions: in vivo, time 0.083-24 hrs
[19] = AUCinfinity in Sprague-Dawley rat at 10 mg/kg,po measured at 0.083 to 24 hrs post administration by LC-MS/MS analysis; type: ADME, organism-based; conditions: in vivo, po, 10 mg/kg, time 0.083-24 hrs
[20] = Drug accumulation in CD-1 mouse plasma assessed as fold change in drug uptake at 10 mg/kg,po measured at 0.083 to 24 hrs post administration by LC-MS/MS analysis; type: ADME, organism-based; conditions: in vivo, time 0.083-24 hrs
[21] = Clearance in CD-1 mouse at 2 mg/kg,iv measured at 0.083 to 24 hrs post administration by LC-MS/MS analysis; type: ADME, organism-based; conditions: in vivo, time 0.083-24 hrs
[22] = Cmax in Sprague-Dawley rat at 2 mg/kg,iv measured at 0.083 to 24 hrs post administration by LC-MS/MS analysis; type: ADME, organism-based; conditions: in vivo, time 0.083-24 hrs
[23] = Cmax in Sprague-Dawley rat at 10 mg/kg,po measured at 0.083 to 24 hrs post administration by LC-MS/MS analysis; type: ADME, organism-based; conditions: in vivo, time 0.083-24 hrs
[24] = Cmax in CD-1 mouse at 2 mg/kg,iv measured at 0.083 to 24 hrs post administration by LC-MS/MS analysis; type: ADME, organism-based; conditions: in vivo, time 0.083-24 hrs
[25] = Apparent volume of distribution at steady state in CD-1 mouse at 10 mg/kg,po measured at 0.083 to 24 hrs post administration by LC-MS/MS analysis; type: ADME, organism-based; conditions: in vivo, time 0.083-24 hrs
[26] = Drug accumulation in CD-1 mouse liver at 10 mg/kg,po measured at 0.083 to 24 hrs post administration by LC-MS/MS analysis; type: ADME, organism-based; conditions: in vivo, time 0.083-24 hrs
[27] = Apparent volume of distribution at steady state in Sprague-Dawley rat at 10 mg/kg,po measured at 0.083 to 24 hrs post administration by LC-MS/MS analysis; type: ADME, organism-based; conditions: in vivo, time 0.083-24 hrs
[28] = Tmax in CD-1 mouse at 10 mg/kg,po measured at 0.083 to 24 hrs post administration by LC-MS/MS analysis; type: ADME, organism-based; conditions: in vivo, time 0.083-24 hrs
[29] = Tmax in Sprague-Dawley rat at 10 mg/kg,po measured at 0.083 to 24 hrs post administration by LC-MS/MS analysis; type: ADME, organism-based; conditions: in vivo, po, 10 mg/kg, time 0.083-24 hrs
[30] = Drug accumulation in Sprague-Dawley rat liver at 10 mg/kg,po measured at 0.083 to 24 hrs post administration by LC-MS/MS analysis; type: ADME, organism-based; conditions: in vivo, time 0.083-24 hrs

pEC50 (Hepatitis B virus): 6.02
SMILES: COc1cc2c(cn1)-c1cc(=O)c(C(=O)O)cn1C(C(C)C)C2 (stereo not given)
CC50 (HepG2 2.2.15): > 50 µM

pEC50 (Hepatitis B virus): 5.62
SMILES: CC(C)C1Cc2sccc2-c2cc(=O)c(C(=O)O)cn21 (stereo not given)
CC50 (HepG2 2.2.15): > 50 µM

pEC50 (Hepatitis B virus): 4.68
SMILES: CC(C)C1Cc2sc(Cl)cc2-c2cc(=O)c(C(=O)O)cn21 (stereo not given)
CC50 (HepG2 2.2.15): > 50 µM

pEC50 (Hepatitis B virus): 8.15
SMILES: COc1cc2c(nc1OC)-c1cc(=O)c(C(=O)O)cn1[C@H](C(C)C)C2
CC50 (HepG2 2.2.15): > 50 µM

pEC50 (Hepatitis B virus): 8.14
SMILES: COc1cc2c(cc1OC)-c1cc(=O)c(C(=O)O)cn1[C@H](C(C)C)C2

The next lines start with the molecule.

SMILES: CC(C)[C@@H]1COc2cc(OCC3CC3)c(Cl)cc2-c2cc(=O)c(C(=O)O)cn21
microsomal CLint at 0.3 µM [1]: 1 µL/min/mg | pEC50 (Hepatitis B virus): 7.49 | CC50 (HepG2 2.2.15): 37 µM

SMILES: CC(C)[C@@H]1COc2cc(OCCCCO)c(Cl)cc2-c2cc(=O)c(C(=O)O)cn21
microsomal CLint at 0.3 µM [1]: 1 µL/min/mg | pEC50 (Hepatitis B virus): 7.85 | CC50 (HepG2 2.2.15): > 50 µM

SMILES: COc1cc2c(cc1Cl)-c1cc(=O)c(C(=O)O)cn1C(C(C)C)CO2 (stereo not given)
pEC50 (Hepatitis B virus): 7.12 | CC50 (HepG2 2.2.15): 46 µM

SMILES: COCCCOc1cc2c(cc1C)-c1cc(=O)c(C(=O)O)cn1[C@H](C(C)C)CO2
microsomal CLint at 0.3 µM [2]: 8 µL/min/mg | microsomal CLint at 0.3 µM [1]: 4 µL/min/mg | pEC50 (Hepatitis B virus): 7.41 | CC50 (HepG2 2.2.15): 39 µM

SMILES: CC(C)[C@@H]1COc2cc(OCC(F)(F)F)c(Cl)cc2-c2cc(=O)c(C(=O)O)cn21
microsomal CLint at 0.3 µM [2]: 4 µL/min/mg | pEC50 (Hepatitis B virus): 7.06 | CC50 (HepG2 2.2.15): 36 µM

SMILES: COCCCOc1cc2c(nc1OC)-c1cc(=O)c(C(=O)O)cn1[C@](C)(C(C)(C)C)C2
Cmax [3]: 0.653 µg/mL | AUC [4]: 1.199 µg·h/mL | fold change (FC) [5]: 35 | half-life [6]: 2.9 h | AUC(0-inf) [7]: 4.36 µg·h/mL | half-life ([8]; Sprague-Dawley): 5.2 h | clearance [9]: 2.4 L/h/kg | F [10]: 56% | AUC(0-inf) [11]: 0.914 µg·h/mL | fold change (FC) [12]: 41 | Vd [13]: 4 L/kg | fold change (FC) [14]: 7.4 | Vd [15]: 3.1 L/kg | half-life [16]: 1.7 h | bioavailability [17]: 92% | pEC50 (Hepatitis B virus): 9.00 | half-life [18]: 3.7 h | AUC [19]: 1.666 µg·h/mL | fold change (FC) [20]: 4 | CC50 (HepG2 2.2.15): 41 µM | clearance [21]: 1.74 L/h/kg | Cmax [22]: 1.68 µg/mL | Cmax ([23]; Sprague-Dawley, read-out: Cmax): 0.274 µg/mL | Cmax [24]: 0.834 µg/mL

SMILES: C=Cc1cc2c(cc1OCCCOC)OC[C@@H](C(C)C)n1cc(C(=O)O)c(=O)cc1-2
pEC50 (Hepatitis B virus): 8.40 | CC50 (HepG2 2.2.15): 33 µM

SMILES: COc1cc2c(cc1Cl)-c1cc(=O)c(C(=O)O)cn1[C@@H](C(C)C)CO2
pEC50 (Hepatitis B virus): 5.46 | CC50 (HepG2 2.2.15): > 50 µM

SMILES: COCCCCOc1cc2c(cc1Cl)-c1cc(=O)c(C(=O)O)cn1[C@H](C(C)C)CO2
microsomal CLint at 0.3 µM [1]: 1 µL/min/mg | pEC50 (Hepatitis B virus): 7.80 | CC50 (HepG2 2.2.15): 43 µM

SMILES: COc1nc2c(cc1OCCCO)C[C@@H](C(C)C)n1cc(C(=O)O)c(=O)cc1-2
pEC50 (Hepatitis B virus): 8.15 | CC50 (HepG2 2.2.15): > 50 µM

SMILES: COCCCOc1cc2c(cc1C1CC1)-c1cc(=O)c(C(=O)O)cn1[C@H](C(C)C)CO2
Cmax [3]: 0.914 µg/mL | AUC(0-inf) [7]: 8.41 µg·h/mL | t1/2 ([8]; po, 10 mg/kg): 1 h | F [10]: 13% | Vdss(app) [25]: 0.8 L/kg | Ct [26]: 575 ng/g | bioavailability [17]: 69% | Vdss(app) [27]: 0.3 L/kg | Tmax [28]: 4.8 h | Tmax [29]: 3.1 h | microsomal CLint at 0.3 µM [1]: 1 µL/min/mg | pEC50 (Hepatitis B virus): 8.22 | half-life [18]: 0.9 h | AUC [19]: 3.95 µg·h/mL | CC50 (HepG2 2.2.15): 42 µM | Ct [30]: 20 ng/g | clearance [21]: 0.84 L/h/kg | Cmax ([23]; po, 10 mg/kg): 0.488 µg/mL
